Results on 1 compound are retold here after BindingDB's records for patent US11339122 (University of Pittsburgh, 2022).

In the test the target is Transient receptor potential cation channel subfamily V member 1 (Homo sapiens, UniProt Q8NER1). The test can be described thus: RTX Competition Binding Assay. On the procedure:
Binding studies with [3H]RTX were carried out as follows. The binding assay mixtures were prepared in 1.5 ml centrifuge tubes and consisted of a fixed concentration (approximately 2 nM) of [3H]RTX (37 Ci/mmol specific activity, PerkinElmer Life Sciences), various concentrations of competing ligands, and […] of membranes from induced CHO-hTRPV1 expressing cells (approximately 1-3×10^6 cells) in Dulbecco's phosphate buffered saline (DPBS, with Ca2+ & Mg2+) for a total volume of 350 μl. The assay mix contained bovine serum albumin at a final concentration of 0.25 mg/ml (Cohn fraction V; Sigma-Aldrich, St. Louis, Mo.). In each set of experiments, nonspecific binding were determined in the presence of 200 nM non-radioactive RTX. The binding reaction was initiated by placing the assay mixture in a 37° C. shaking water bath for 60 minutes ([…]). The assay mixture was then chilled on ice for 2-3 min before adding 100 μl of α1-acid glycoprotein (2 mg/ml; Sigma-Aldrich) and mixed thoroughly. The tubes were kept on ice for an additional 10 min. The bound and free ligands were then separated by centrifugation (12,200 rpm for 15 minutes) in a Beckman Coulter centrifuge Allegra 21R. 200 μl of supernatant was collected for determination of free ligand. The remainder was removed by aspiration.

Chain of Transient receptor potential cation channel subfamily V member 1 (Q8NER1 whole entry): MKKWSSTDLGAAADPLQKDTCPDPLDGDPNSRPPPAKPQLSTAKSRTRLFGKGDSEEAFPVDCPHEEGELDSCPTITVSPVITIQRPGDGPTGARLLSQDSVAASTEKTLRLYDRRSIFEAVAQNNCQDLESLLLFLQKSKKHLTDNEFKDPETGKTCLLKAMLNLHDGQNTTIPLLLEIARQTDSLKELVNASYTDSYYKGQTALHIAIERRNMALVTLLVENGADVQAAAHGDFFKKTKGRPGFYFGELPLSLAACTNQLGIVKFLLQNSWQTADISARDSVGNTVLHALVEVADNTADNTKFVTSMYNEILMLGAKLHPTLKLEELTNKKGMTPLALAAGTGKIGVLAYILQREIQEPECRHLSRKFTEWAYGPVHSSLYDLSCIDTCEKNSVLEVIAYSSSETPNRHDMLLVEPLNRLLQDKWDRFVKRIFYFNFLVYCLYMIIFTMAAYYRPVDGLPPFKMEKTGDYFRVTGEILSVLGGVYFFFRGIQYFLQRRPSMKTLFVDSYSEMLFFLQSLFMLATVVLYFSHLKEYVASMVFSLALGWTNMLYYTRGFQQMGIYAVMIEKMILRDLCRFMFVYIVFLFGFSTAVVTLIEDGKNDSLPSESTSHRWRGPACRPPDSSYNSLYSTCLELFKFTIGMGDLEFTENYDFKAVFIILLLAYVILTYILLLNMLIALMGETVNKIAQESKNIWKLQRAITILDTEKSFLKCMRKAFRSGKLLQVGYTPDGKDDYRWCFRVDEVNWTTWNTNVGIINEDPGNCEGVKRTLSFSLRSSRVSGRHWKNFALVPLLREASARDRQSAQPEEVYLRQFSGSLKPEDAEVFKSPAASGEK

For the compound `CCOC(=O)c1ccc(NC(=O)Nc2ccc(F)cc2)cc1` [US11339122, Compound 5b], the inhibition constant Ki came to 2840 nM.

As usually defined, the Ki is a measure of affinity in units of concentration, obtained from inhibition or displacement.
